Reference: PubChem BioAssay (NCI)
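Briefly, cells in 96-well plates were exposed to five compound concentrations for 48 h, and endpoints were estimated by linear interpolation. TGI denotes the concentration required for complete inhibition of growth.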

Columns and labels:
Assay in all cases: NCI anticancer screen, dose series, 48 h
[1] = tested on: A498 renal
[2] = tested on: T-47D breast
[3] = tested on: RXF 393 renal
[4] = tested on: COLO 205 colon
[5] = tested on: NCI-H226 lung
[6] = tested on: K-562 leukemia
[7] = tested on: A549 NSCLC
[8] = tested on: MCF7 breast
[9] = tested on: NCI-H23 lung
[10] = tested on: SNB-75 CNS
[11] = tested on: HOP-62 NSCLC
[12] = tested on: NCI/ADR-RES ovarian
[13] = tested on: CCRF-CEM leukemia
[14] = tested on: SW-620 colon
[15] = tested on: HL-60(TB) leukemia
[16] = tested on: MDA-MB-231 breast
[17] = tested on: SNB-19 CNS
[18] = tested on: HOP-92 NSCLC
[19] = tested on: HS 578T breast
[20] = tested on: HCT-15 colon
[21] = tested on: HCC-2998 colon
[22] = tested on: UO-31 renal
[23] = tested on: SN12C renal
[24] = tested on: M14 melanoma
[25] = tested on: IGROV1 ovarian
[26] = tested on: CAKI-1 renal
[27] = tested on: LOX IMVI melanoma
[28] = tested on: UACC-62 melanoma
[29] = tested on: EKVX NSCLC
[30] = tested on: KM12 colon
[31] = tested on: RPMI-8226 leukemia
[32] = tested on: SK-MEL-5 melanoma
[33] = tested on: MOLT-4 leukemia
[34] = tested on: SK-MEL-28 melanoma
[35] = tested on: UACC-257 melanoma
[36] = tested on: HT29 colon
[37] = tested on: ACHN renal
[38] = tested on: 786-0 renal
[39] = tested on: TK-10 renal
[40] = tested on: HCT-116 colon
[41] = tested on: OVCAR-4 ovarian
[42] = tested on: SK-MEL-2 melanoma
[43] = tested on: U251 CNS
[44] = tested on: MDA-MB-435
[45] = tested on: NCI-H522 lung
[46] = tested on: PC-3 prostate
[47] = tested on: SF-268 CNS
[48] = tested on: MALME-3M melanoma
[49] = tested on: SK-OV-3 ovarian
[50] = tested on: OVCAR-8 ovarian
[51] = tested on: BT-549 breast
[52] = tested on: NCI-H460 lung
[53] = tested on: DU-145 prostate
[54] = tested on: MDA-N
[55] = tested on: OVCAR-5 ovarian
[56] = tested on: SF-295 CNS
[57] = tested on: SF-539 CNS

Nc1ccccc1N/C=C\C(=O)C(Cl)(Cl)Cl
TGI [1]: 38.9 µM | TGI [2]: 43.1 µM | TGI [3]: 45.2 µM | TGI [4]: 52.7 µM | TGI [5]: > 100 µM | TGI [6]: 78.9 µM | TGI [7]: > 100 µM | TGI [8]: 30.7 µM | TGI [9]: 59.9 µM | TGI [10]: 72.2 µM | TGI [11]: 37.2 µM | TGI [12]: > 100 µM | TGI [13]: > 100 µM | TGI [14]: 48.1 µM | TGI [15]: 85.3 µM | TGI [16]: > 100 µM | TGI [17]: > 100 µM | TGI [18]: 47.8 µM | TGI [19]: > 100 µM | TGI [20]: 46.1 µM | TGI [21]: 31.7 µM | TGI [22]: 62.6 µM | TGI [23]: 40.2 µM | TGI [24]: 31.8 µM | TGI [25]: 40.7 µM | TGI [26]: 51.3 µM | TGI [27]: 29.7 µM | TGI [28]: 35.9 µM | TGI [29]: 30.5 µM | TGI [30]: 29.4 µM | TGI [31]: 38 µM | TGI [32]: > 100 µM | TGI [33]: > 100 µM | TGI [34]: 42.8 µM | TGI [35]: 64.2 µM | TGI [36]: 34.6 µM | TGI [37]: 35.1 µM | TGI [38]: 28.3 µM | TGI [39]: 71.9 µM | TGI [40]: 29.7 µM | TGI [41]: 44.4 µM | TGI [42]: 53.7 µM | TGI [43]: 56.9 µM | TGI [44]: 28 µM | TGI [45]: > 100 µM | TGI [46]: > 100 µM | TGI [47]: > 100 µM | TGI [48]: > 100 µM | TGI [49]: 70.8 µM | TGI [50]: > 100 µM | TGI [51]: 58.6 µM | TGI [52]: > 100 µM | TGI [53]: 75.1 µM | TGI [54]: 30.9 µM | TGI [55]: 45.6 µM | TGI [56]: 75.1 µM | TGI [57]: > 100 µM
